Target: hERG (Homo sapiens, UniProt Q12809)
Assay: Patch clamp assay (hERG tail currents, whole-cell)

hERG, sequence (Q12809 whole entry): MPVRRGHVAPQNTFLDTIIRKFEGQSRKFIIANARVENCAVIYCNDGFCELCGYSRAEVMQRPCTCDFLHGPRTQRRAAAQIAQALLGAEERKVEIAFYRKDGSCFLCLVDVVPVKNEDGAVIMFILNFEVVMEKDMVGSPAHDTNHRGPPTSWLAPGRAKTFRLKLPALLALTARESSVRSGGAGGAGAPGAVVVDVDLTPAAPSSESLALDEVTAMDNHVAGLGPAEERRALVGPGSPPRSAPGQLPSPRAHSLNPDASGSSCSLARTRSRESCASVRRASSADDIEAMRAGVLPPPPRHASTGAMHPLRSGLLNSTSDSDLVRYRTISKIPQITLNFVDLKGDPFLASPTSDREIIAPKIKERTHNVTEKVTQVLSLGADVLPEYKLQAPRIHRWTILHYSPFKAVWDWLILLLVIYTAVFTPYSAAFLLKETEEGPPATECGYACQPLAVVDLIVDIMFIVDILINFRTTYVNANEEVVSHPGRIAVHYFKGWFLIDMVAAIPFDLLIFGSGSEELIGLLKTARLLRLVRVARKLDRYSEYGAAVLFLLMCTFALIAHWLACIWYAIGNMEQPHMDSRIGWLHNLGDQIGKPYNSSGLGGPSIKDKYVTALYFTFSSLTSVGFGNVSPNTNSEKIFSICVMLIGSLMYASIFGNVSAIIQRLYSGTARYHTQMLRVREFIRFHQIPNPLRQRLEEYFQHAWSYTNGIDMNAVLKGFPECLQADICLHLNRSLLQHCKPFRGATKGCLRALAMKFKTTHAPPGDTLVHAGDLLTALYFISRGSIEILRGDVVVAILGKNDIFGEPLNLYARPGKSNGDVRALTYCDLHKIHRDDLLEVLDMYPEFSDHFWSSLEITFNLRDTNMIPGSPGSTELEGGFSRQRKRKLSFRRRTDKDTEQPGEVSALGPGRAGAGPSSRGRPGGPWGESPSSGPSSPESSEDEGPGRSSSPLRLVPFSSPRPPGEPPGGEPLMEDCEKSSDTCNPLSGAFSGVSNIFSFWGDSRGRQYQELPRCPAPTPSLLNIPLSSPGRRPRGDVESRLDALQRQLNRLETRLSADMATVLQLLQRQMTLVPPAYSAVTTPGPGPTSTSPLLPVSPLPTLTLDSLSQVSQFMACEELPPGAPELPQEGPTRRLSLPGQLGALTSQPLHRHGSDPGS

| SMILES | hERG % Remaining (30 μM compound) | hERG % Remaining (10 μM compound) | hERG % Remaining (100 μM compound) |
| --- | --- | --- | --- |
| CC(C)N(C(=O)c1cc(F)ccc1Oc1cncnc1N1CC2(CCN(C[C@@H]3CC[C@@H](NS(=O)(=O)N(C)C(C)C)CO3)CC2)C1)C1CC(F)(F)C1 [Example 119, N-(3,3-Difluorocyclobutyl)-5-fluoro-N-isopropyl-2-((4-(7-(((2S,5R)-5-((N-isopropyl-N-methylsulfamoyl)amino)tetrahydro-2H-pyran-2-yl)methyl)-2,7-diazaspiro[3.5]nonan-2-yl)pyrimidin-5-yl)oxy)benzamide] | + (<33%) |  |  |
| C[C@@H]1COC[C@@H](C)N1C(=O)c1cc(F)ccc1Oc1cncnc1N1CC2(CCN(C[C@@H]3CC[C@@H](NS(=O)(=O)c4ccccc4)CO3)CC2)C1 [Example 120, N-((3R,6S)-6-((2-(5-(2-((3R,5R)-3,5-Dimethylmorpholine-4-carbonyl)-4-fluorophenoxy)pyrimidin-4-yl)-2,7-diazaspiro[3.5]nonan-7-yl)methyl)tetrahydro-2H-pyran-3-yl)benzenesulfonamide] | ++ (233% and ≤66%) | +++ (≥66%) |  |
| C[C@@H]1COC[C@@H](C)N1C(=O)c1cc(F)ccc1Oc1cncnc1N1CC2(CCN(C[C@@H]3CC[C@@H](NS(=O)(=O)N4CCC4)CO3)CC2)C1 [Example 121, N-((3R,6S)-6-((2-(5-(2-((3R,5R)-3,5-Dimethylmorpholine-4-carbonyl)-4-fluorophenoxy)pyrimidin-4-yl)-2,7-diazaspiro[3.5]nonan-7-yl)methyl)tetrahydro-2H-pyran-3-yl)azetidine-1-sulfonamide] | +++ (≥66%) |  |  |
| Cc1nc(S(=O)(=O)N[C@@H]2CC[C@@H](CN3CCC4(CC3)CN(c3ncncc3Oc3ccc(F)cc3C(=O)N3[C@H](C)COC[C@H]3C)C4)OC2)cs1 [Example 122, N-((3R,6S)-6-((2-(5-(2-((3R,5R)-3,5-Dimethylmorpholine-4-carbonyl)-4-fluorophenoxy)pyrimidin-4-yl)-2,7-diazaspiro[3.5]nonan-7-yl)methyl)tetrahydro-2H-pyran-3-yl)-2-methylthiazole-4-sulfonamide] | +++ (≥66%) |  |  |
| C[C@@H]1COC[C@@H](C)N1C(=O)c1cc(F)ccc1Oc1cncnc1N1CC2(CCN(C[C@@H]3CC[C@@H](NS(=O)(=O)N(C)C)CO3)CC2)C1 [Example 123, {[(3R,6S)-6-{[2-(5-{2-[(3R,5R)-3,5-Dimethylmorpholine-4-carbonyl]-4-fluorophenoxy}pyrimidin-4-yl)-2,7-diazaspiro[3.5]nonan-7-yl]methyl}oxan-3-yl]sulfamoyl}dimethylamine] | +++ (≥66%) |  |  |
| CCNS(=O)(=O)N[C@@H]1CC[C@@H](CN2CCC3(CC2)CN(c2ncncc2Oc2ccc(F)cc2C(=O)N2[C@H](C)COC[C@H]2C)C3)OC1 [Example 125, {[(3R,6S)-6-{[2-(5-{2-[(3R,5R)-3,5-Dimethylmorpholine-4-carbonyl]-4-fluorophenoxy}pyrimidin-4-yl)-2,7-diazaspiro[3.5]nonan-7-yl]methyl}oxan-3-yl]sulfamoyl}(ethyl)amine] | +++ (≥66%) |  |  |
| C[C@@H]1COC[C@H](C)N1C(=O)c1cc(F)ccc1Oc1cncnc1N1CC2(CCN(C[C@@H]3CC[C@@H](NS(=O)(=O)c4ccccc4)CO3)CC2)C1 [Example 130, N-((3R,6S)-6-((2-(5-(2-((3S,5R)-3,5-Dimethylmorpholine-4-carbonyl)-4-fluorophenoxy)pyrimidin-4-yl)-2,7-diazaspiro[3.5]nonan-7-yl)methyl)tetrahydro-2H-pyran-3-yl)benzenesulfonamide] | ++ (233% and ≤66%) | +++ (≥66%) |  |
| CC(C)N(C(=O)c1cc(F)ccc1Oc1cncnc1N1CC2(CCN(C[C@@H]3CC[C@@H](NS(=O)(=O)N4CCC4)CO3)CC2)C1)[C@H]1CCOC1 [Example 134, 2-((4-(7-(((2S,5R)-5-(Azetidine-1-sulfonamido)tetrahydro-2H-pyran-2-yl)methyl)-2,7-diazaspiro[3.5]nonan-2-yl)pyrimidin-5-yl)oxy)-5-fluoro-N-isopropyl-N-((S)-tetrahydrofuran-3-yl)benzamide] | +++ (≥66%) |  |  |
| CC(C)N(CCC#N)C(=O)c1cc(F)ccc1Oc1cncnc1N1CC2(CCN(C[C@@H]3CC[C@@H](NS(=O)(=O)c4ccccc4)CO3)CC2)C1 [Example 136, N-(2-Cyanoethyl)-5-fluoro-N-isopropyl-2-((4-(7-(((2S,5R)-5-(phenylsulfonamido)tetrahydro-2H-pyran-2-yl)methyl)-2,7-diazaspiro[3.5]nonan-2-yl)pyrimidin-5-yl)oxy)benzamide] | + (<33%) | +++ (≥66%) |  |
| CC(C)N(C)C(=O)c1cc(F)ccc1Oc1cncnc1N1CC2(CCN(C[C@@H]3CC[C@@H](NS(=O)(=O)N4CCC4)CO3)CC2)C1 [Example 138, 2-((4-(7-(((2S,5R)-5-(Azetidine-1-sulfonamido)tetrahydro-2H-pyran-2-yl)methyl)-2,7-diazaspiro[3.5]nonan-2-yl)pyrimidin-5-yl)oxy)-5-fluoro-N-isopropyl-N-methylbenzamide] | +++ (≥66%) |  |  |
| CCNS(=O)(=O)N[C@@H]1CC[C@@H](CN2CCC3(CC2)CN(c2ncncc2Oc2ccc(F)cc2C(=O)N(CC)C(C)C)C3)OC1 [Example 141, N-Ethyl-2-((4-(7-(((2S,5R)-5-((N-ethylsulfamoyl)amino)tetrahydro-2H-pyran-2-yl)methyl)-2,7-diazaspiro[3.5]nonan-2-yl)pyrimidin-5-yl)oxy)-5-fluoro-N-isopropylbenzamide] | +++ (≥66%) |  |  |
| CCN(C(=O)c1cc(F)ccc1Oc1cncnc1N1CC2(CCN(C[C@@H]3CC[C@@H](NS(=O)(=O)NC4CC4)CO3)CC2)C1)C(C)C [Example 142, 2-((4-(7-(((2S,5R)-5-((N-Cyclopropylsulfamoyl)amino)tetrahydro-2H-pyran-2-yl)methyl)-2,7-diazaspiro[3.5]nonan-2-yl)pyrimidin-5-yl)oxy)-N-ethyl-5-fluoro-N-isopropylbenzamide] | ++ (233% and ≤66%) |  |  |
| CNS(=O)(=O)N[C@@H]1CC[C@@H](CN2CCC3(CC2)CN(c2ncncc2Oc2ccc(F)cc2C(=O)N(C(C)C)C(C)C)C3)OC1 [Example 143, 5-Fluoro-N,N-diisopropyl-2-((4-(7-(((2S,5R)-5-((N-methylsulfamoyl)amino)tetrahydro-2H-pyran-2-yl)methyl)-2,7-diazaspiro[3.5]nonan-2-5-yl)pyrimidin-5-yl)oxy)benzamide] | +++ (≥66%) |  | +++ (≥66%) |
| CCNS(=O)(=O)N[C@@H]1CC[C@@H](CN2CCC3(CC2)CN(c2ncncc2Oc2ccc(F)cc2C(=O)N(C(C)C)C(C)C)C3)OC1 [Example 144, 2-((4-(7-(((2S,5R)-5-((N-Ethylsulfamoyl)amino)tetrahydro-2H-pyran-2-yl)methyl)-2,7-diazaspiro[3.5]nonan-2-yl)pyrimidin-5-yl)oxy)-5-fluoro-N,N-diisopropylbenzamide] | +++ (≥66%) |  |  |
| CCNS(=O)(=O)N[C@@H]1CC[C@@H](CN2CCC3(CC2)CN(c2ncncc2Oc2ccc(F)cc2C(=O)N(C(C)C)C2CC2)C3)OC1 [Example 145, N-Cyclopropyl-2-((4-(7-(((2S,5R)-5-((N-ethylsulfamoyl)amino)tetrahydro-2H-pyran-2-yl)methyl)-2,7-diazaspiro[3.5]nonan-2-yl)pyrimidin-5-yl)oxy)-5-fluoro-N-isopropylbenzamide] | +++ (≥66%) |  |  |
| CCNS(=O)(=O)N[C@@H]1CC[C@@H](CN2CCC3(CC2)CN(c2ncncc2Oc2ccc(F)cc2C(=O)N(CC(F)F)C(C)C)C3)OC1 [Example 147, N-(2,2-Difluoroethyl)-2-((4-(7-(((2S,5R)-5-((N-ethylsulfamoyl)amino)tetrahydro-2H-pyran-2-yl)methyl)-2,7-diazaspiro[3.5]nonan-2-yl)pyrimidin-5-yl)oxy)-5-fluoro-N-isopropylbenzamide] | +++ (≥66%) | +++ (≥66%) |  |
| CC(C)N(CC(F)F)C(=O)c1cc(F)ccc1Oc1cncnc1N1CC2(CCN(C[C@@H]3CC[C@@H](NS(=O)(=O)NCC4CC4)CO3)CC2)C1 [Example 148, 2-((4-(7-(((2S,5R)-5-((N-(Cyclopropylmethyl)sulfamoyl)amino)tetrahydro-2H-pyran-2-yl)methyl)-2,7-diazaspiro[3.5]nonan-2-yl)pyrimidin-5-yl)oxy)-N-(2,2-difluoroethyl)-5-fluoro-N-isopropylbenzamide] | +++ (≥66%) |  |  |
| CC(C)N(CC(F)F)C(=O)c1cc(F)ccc1Oc1cncnc1N1CC2(CCN(C[C@@H]3CC[C@@H](NS(=O)(=O)NC4CC4)CO3)CC2)C1 [Example 149, 2-((4-(7-(((2S,5R)-5-((N-Cyclopropylsulfamoyl)amino)tetrahydro-2H-pyran-2-yl)methyl)-2,7-diazaspiro[3.5]nonan-2-yl)pyrimidin-5-yl)oxy)-N-(2,2-difluoroethyl)-5-fluoro-N-isopropylbenzamide] | +++ (≥66%) |  |  |
| CCNS(=O)(=O)N[C@@H]1CC[C@@H](CN2CCC3(CC2)CN(c2ncncc2Oc2ccc(F)cc2C(=O)N(CC(F)(F)F)C(C)C)C3)OC1 [Example 153, 2-((4-(7-(((2S,5R)-5-((N-Ethylsulfamoyl)amino)tetrahydro-2H-pyran-2-yl)methyl)-2,7-diazaspiro[3.5]nonan-2-yl)pyrimidin-5-yl)oxy)-5-fluoro-N-isopropyl-N-(2,2,2-trifluoroethyl)benzamide] | +++ (≥66%) |  |  |
| CNS(=O)(=O)N[C@@H]1CC[C@@H](CN2CCC3(CC2)CN(c2ncncc2Oc2ccc(F)cc2C(=O)N(C(C)C)C2CC(F)(F)C2)C3)OC1 [Example 154, N-(3,3-Difluorocyclobutyl)-5-fluoro-N-isopropyl-2-((4-(7-(((2S,5R)-5-((N-methylsulfamoyl)amino)tetrahydro-2H-pyran-2-yl)methyl)-2,7-diazaspiro[3.5]nonan-2-yl)pyrimidin-5-yl)oxy)benzamide] | ++ (233% and ≤66%) | +++ (≥66%) |  |
| CCNS(=O)(=O)N[C@@H]1CC[C@@H](CN2CCC3(CC2)CN(c2ncncc2Oc2ccc(F)cc2C(=O)N(C(C)C)C2CC(F)(F)C2)C3)OC1 [Example 155, N-(3,3-Difluorocyclobutyl)-2-((4-(7-(((2S,5R)-5-((N-ethylsulfamoyl)amino)tetrahydro-2H-pyran-2-yl)methyl)-2,7-diazaspiro[3.5]nonan-2-yl)pyrimidin-5-yl)oxy)-5-fluoro-N-isopropylbenzamide] | ++ (233% and ≤66%) | +++ (≥66%) |  |
